Active and inactive are the calls of the source. No cut-off for these calls is given here.
Legend:
[1] = Toxicity in zebrafish embryo assessed as liver function at 0.25 uM with replacement of new growth solution daily by fluorescence microscopy (reference value: 100 +/- 8.89 %); format: tissue-based, Danio rerio; conditions: in vivo
[2] = tested on: BEAS-2B; assay: Induction of ROS generation in human BEAS-2B cells at 0.4 uM incubated for 24 hrs by DCFH-DA probe based analysis; format: toxicity, cell-based
[3] = Drug accumulation in mitochondria of human NCI-H1975 cells at 10 uM incubated for 7 hrs by HPLC analysis; format: ADME; conditions: nci-h1975, 7 h
[4] = tested on: NCI-H1975; assay: Inhibition of cell migration in human NCI-H1975 cells at 2.5 to 5 nM incubated upto 72 hrs by scratch healing assay; format: functional, cell-based; conditions: dose 2.5-5 nM
[5] = Toxicity in zebrafish embryo assessed as death rate at 4 uM pretreated with compound followed by replacement of growth liquid by microscopy (reference value: 2.22 +/- 3.84 %); set-up: species or system Danio rerio; conditions: in vivo, read-out: Activity
[6] = Renal toxicity in zebrafish assessed as FITC dye residue at 2 uM treated for 24 hrs followed by dye treatment measured after 6 hrs by fluorescence microscopy; set-up: species or system Danio rerio; conditions: in vivo, 30 h
[7] = Toxicity in zebrafish embryo assessed as degree of periocular edema at 1 uM pretreated with compound followed by replacement of growth liquid by microscopy (reference value: 0.00 %); set-up: species or system Danio rerio; conditions: in vivo
[8] = Toxicity in zebrafish embryo assessed as degree of periocular edema at 0.5 uM pretreated with compound followed by replacement of growth liquid by microscopy (reference value: 0.00 %); set-up: species or system Danio rerio; conditions: in vivo
[9] = Toxicity in zebrafish embryo assessed as liver development at 0.25 uM with replacement of new growth solution daily by fluorescence microscopy (reference value: 100.00 +/- 8.64 %); format: tissue-based, Danio rerio; conditions: in vivo
[10] = tested on: A549; assay: Cytotoxicity against human A549 cells assessed as inhibition of cell viability incubated for 48 hrs by MTT assay; format: functional, cell-based; conditions: A549, 48 h
[11] = Toxicity in zebrafish at 2 uM; set-up: species or system Danio rerio; conditions: in vivo
[12] = Toxicity in zebrafish embryo assessed as damage effect in liver function at 0.5 uM with replacement of new growth solution daily by fluorescence microscopy relative to control; format: tissue-based, Danio rerio; conditions: in vivo
[13] = tested on: NCI-H1975; assay: Inhibition of cell viability in human NCI-H1975 cells assessed as cell index at 270 nM measured after 48 hrs by real-time cell analysis; format: functional
[14] = Developmental toxicity in zebrafish AB zygotes assessed as embryo malformation at 2 to 4 uM treated at 6 hrs post-fertilization measured at 24 to 72 hrs post-fertilization; set-up: species or system Danio rerio; conditions: in vivo, dose lower 2 µM, time lower 18 hrs, dose upper 4 µM, time upper 66 hrs
[15] = Toxicity in zebrafish embryo assessed as liver function at 0.5 uM with replacement of new growth solution daily by fluorescence microscopy (reference value: 100 +/- 8.89 %); format: tissue-based, Danio rerio; conditions: in vivo
[16] = Toxicity in zebrafish embryo assessed as death rate at 0.5 uM pretreated with compound followed by replacement of growth liquid by microscopy (reference value: 0.00 %); set-up: species or system Danio rerio; conditions: in vivo, read-out: Activity
[17] = tested on: NCI-H1975; assay: Induction of ROS generation in human NCI-H1975 cells incubated for 24 hrs by DCFH-DA probe based analysis; format: functional, cell-based; conditions: dose 0.05-0.4 µM
[18] = Developmental toxicity in zebrafish AB zygotes assessed as decrease in hatching rate at 2 to 4 uM treated at 6 hrs post-fertilization measured at 24 to 72 hrs post-fertilization; set-up: species or system Danio rerio; conditions: in vivo, dose lower 2 µM, time lower 18 hrs, dose upper 4 µM, time upper 66 hrs
[19] = Toxicity in zebrafish embryo assessed as damage effect in liver development at 0.5 uM with replacement of new growth solution daily by fluorescence microscopy relative to control; format: tissue-based, Danio rerio; conditions: in vivo
[20] = Toxicity in zebrafish embryo assessed as damage effect in liver function at 0.25 uM with replacement of new growth solution daily by fluorescence microscopy relative to control; format: tissue-based, Danio rerio; conditions: in vivo
[21] = Toxicity in zebrafish embryo assessed as liver development at 0.5 uM with replacement of new growth solution daily by fluorescence microscopy (reference value: 100.00 +/- 8.64 %); format: tissue-based, Danio rerio; conditions: in vivo
[22] = Toxicity in zebrafish embryo assessed as death rate at 2 uM pretreated with compound followed by replacement of growth liquid by microscopy (reference value: 2.22 +/- 3.84 %); set-up: species or system Danio rerio; conditions: in vivo, read-out: Activity
[23] = Toxicity in zebrafish embryo assessed as damage effect in liver development at 0.25 uM with replacement of new growth solution daily by fluorescence microscopy relative to control; set-up: species or system Danio rerio; conditions: in vivo
[24] = tested on: NCI-H1975; assay: Inhibition of mitochondrial membrane potential in human NCI-H1975 cells at 200 nM incubated for 24 hrs by JC-1 staining based flow cytometry; format: functional, cell-based
[25] = Developmental toxicity in zebrafish AB zygotes assessed as animal mortality at 4 uM treated at 6 hrs post-fertilization measured at 24 to 72 hrs post-fertilization; set-up: species or system Danio rerio; conditions: in vivo, time 18-66 hrs
[26] = Toxicity in zebrafish embryo assessed as degree of periocular edema at 2 uM pretreated with compound followed by replacement of growth liquid by microscopy (reference value: 0.00 %); set-up: species or system Danio rerio; conditions: in vivo
[27] = tested on: NCI-H1975; assay: Induction of late apoptosis in human NCI-H1975 cells at 50 to 400 nM incubated for 24 hrs by Annexin V-FITC/PI staining based flow cytometry; format: functional, cell-based; conditions: dose 50-400 nM
[28] = Toxicity in zebrafish embryo assessed as death rate at 1 uM pretreated with compound followed by replacement of growth liquid by microscopy (reference value: 2.22 +/- 3.84 %); set-up: species or system Danio rerio; conditions: in vivo, read-out: Activity
[29] = Renal toxicity in fluorescent transgenic zebrafish at 0.5 to 2 uM treated for 48 hrs by fluorescence microscopy; set-up: species or system Danio rerio; conditions: in vivo, dose 0.5-2 µM
[30] = tested on: BEAS-2B; assay: Cytotoxicity against human BEAS-2B cells assessed as cell growth inhibition incubated for 48 hrs by MTT assay; format: toxicity, cell-based
[31] = tested on: NCI-H460; assay: Cytotoxicity against human NCI-H460 cells assessed as cell growth inhibition incubated for 48 hrs by MTT assay; format: functional, cell-based
[32] = Developmental toxicity in zebrafish AB zygotes assessed as embryo malformation at 0.5 to 2 uM treated at 6 hrs post-fertilization measured at 24 to 72 hrs post-fertilization; set-up: species or system Danio rerio; conditions: in vivo, dose lower 0.5 µM, time lower 18 hrs, dose upper 2 µM, time upper 66 hrs
[33] = Developmental toxicity in zebrafish AB zygotes assessed as decrease in body length at 0.25 to 4 uM treated at 6 hrs post-fertilization measured at 24 to 72 hrs post-fertilization; set-up: species or system Danio rerio; conditions: in vivo, dose lower 0.25 µM, time lower 18 hrs, dose upper 4 µM, time upper 66 hrs
[34] = tested on: PC-3; assay: Cytotoxicity against human PC-3 cells assessed as cell growth inhibition at 4.5 to 10 nM incubated for 48 hrs by MTT assay relative to control; format: functional; conditions: dose 4.5-10 nM
[35] = Cytotoxicity against human BEAS-2B cells assessed as cell growth inhibition at 4.5 to 10 nM incubated for 48 hrs by MTT assay relative to control; format: toxicity, cell-based; conditions: dose 4.5-10 nM, read-out: Imax
[36] = tested on: HepG2; assay: Cytotoxicity against human HepG2 cells assessed as cell growth inhibition at 4.5 to 10 nM incubated for 48 hrs by MTT assay relative to control; format: functional; conditions: dose 4.5-10 nM
[37] = Renal toxicity in zebrafish assessed as decrease in nephrin expression at 2 uM treated for 48 hrs by RT-qPCR analysis; set-up: species or system Danio rerio; conditions: in vivo

| SMILES | Activity [1] [%] | Drug uptake [3] | inhibition [4] | mortality at 4 µM [5] [%] | Activity [7] [%] | Activity [8] [%] | Activity [9] [%] | Activity [11] | Activity [12] [%] | Activity [15] [%] | mortality at 24 h, 0.5 µM [16] [%] | Activity [19] [%] | Activity [20] [%] | Activity [21] [%] | mortality at 2 µM [22] [%] | Activity [23] [%] | Activity [25] | Activity [26] [%] | mortality at 1 µM [28] [%] | further results |
| --- | --- | --- | --- | --- | --- | --- | --- | --- | --- | --- | --- | --- | --- | --- | --- | --- | --- | --- | --- | --- |
| CC(C)[C@]12O[C@H]1[C@@H]1O[C@]13[C@]1(O[C@H]1C[C@H]1C4=C(CC[C@@]13C)C(=O)OC4)[C@@H]2OC(=O)CCCCCCCC[n+]1ccc(/C=C/c2c[nH]c3ccccc23)cc1.[Br-] | 61.46 | Active | Active | 11.1 | 13.33 | 2.22 | 95.17 | Non-Toxic | 48.47 | 51.53 | 2.22 | 15.05 | 38.54 | 85 | 6.67 | 4.83 | Non-Toxic | 33.33 | 6.67 | Activity [2]: Toxic; Activity [6]: Toxic; IC50 [10]: 46.1 µM; Activity_index [13]: 0; Activity [14]: Toxic; Activity [17]: Dose-Dependent Effect; Activity [18]: Toxic; inhibition [24]: Active; Activity [27]: Active |
| CC(C)[C@]12O[C@H]1[C@@H]1O[C@@]13[C@@]1(C)CCC4=C(COC4=O)[C@@H]1C[C@@H]1O[C@@]13C2=O [TRIPTONIDE] | 50.55 | Active | Active | 22.2 | 13.33 | 6.67 | 87.8 | Toxic | 76.91 | 23.09 | 2.22 | 54.62 | 49.45 | 45.38 | 13.3 | 12.2 | Toxic | 48.89 | 11.1 | Activity [29]: Toxic; inhibition (INH) [30]: Dose-Dependent Effect; inhibition [31]: Dose-Dependent Effect; Activity [32]: Toxic; Activity [33]: Toxic; Imax [34]: ~60%; Emax at 48 h [35]: ~40%; inhibition (INH) [36]: 80%; Activity [37]: Toxic |

From ChEMBL document CHEMBL5537157, “Selective Antitumor Effect and Lower Toxicity of Mitochondrion-Targeting Derivatization of Triptolide” (J Med Chem, 2024)
